Measurements from patent US20050048490A1, “Proteins associated with cell growth, differentiation, and death” (incyte corp., priority 2002, published 2005).

Columns and labels:
SEQ ID NO:104 = assay: Microarray expression analysis, preadipocytes exposed to differentiation factors versus untreated; type: cell-based; settings: human preadipocytes treated with human insulin and PPAR-γ agonist for 3 days, then insulin
Method: (§1) Total RNA is isolated from tissue samples using the guanidinium thiocyanate method and poly(A)^+ RNA is purified using the oligo-(dT) cellulose method. Each poly(A)^+ RNA sample is reverse transcribed using MMLV reverse-transcriptase, 0.05 pg/μl oligo-(dT) primer (21mer), 1× first strand buffer, 0.03 units/μl RNase inhibitor, 500 μM dATP, 500 μM dGTP, 500 μM dTTP, 40 μM dCTP, 40 μM dCTP-Cy3 (BDS) or dCTP-Cy5 (Amersham Biosciences). The reverse transcription reaction is performed in a […] containing 200 ng poly(A)^+ RNA with GEMBRIGHT kits (Incyte Genomics). Specific control poly(A)^+ RNAs are synthesized by in vitro transcription from non-coding yeast genomic DNA. […]
(§2) Sequences of the present invention are used to generate array elements. […] Array elements are amplified in thirty cycles of PCR from an initial quantity of 1-2 ng to a final quantity greater than 5 μg. […]
(§3) Reporter-labeled hybridization complexes are detected with a microscope equipped with an Innova 70 mixed gas 10 W laser (Coherent, Inc., Santa Clara Calif.) capable of generating spectral lines at 488 nm for excitation of Cy3 and at 632 nm for excitation of Cy5. […]
(§4) A grid is superimposed over the fluorescence signal image such that the signal from each spot is centered in each element of the grid. […]

SEQ ID NO:94 = assay: Microarray expression analysis, activated versus untreated Jurkat cells; type: cell-based, human; settings: Jurkat cells treated with combinations of graded doses of PMA (5 nM-1 μM) and ionomycin (50 ng/ml-10μ/ml), 1 hour time point
Method: as §1, §2, §3, §4

SEQ ID NO:96 = assay: Microarray expression analysis, steroid-treated versus untreated C3A cells; type: cell-based, human; settings: early confluent C3A cells treated at 1, 10, and 100 μM for 1, 3, and 6 hours
Method: as §1, §2, §3, §4

SEQ ID NO:102 = assay: Microarray expression analysis, TNF-α treated versus untreated HUVECs; type: cell-based, human; settings: HUVECs at 85% confluence treated for 0.33, 0.66, 1, 4, 8, 24, 48, and 72 hours, versus untreated HUVECs (0 hour)
Method: as §1, §2, §3, §4

SEQ ID NO:101 = assay: as above; type: cell-based, human; settings: HUVECs at 85% confluence treated for 0.33, 0.66, 1, 4, 8, 24, 48, and 72 hours, versus untreated HUVECs (0 hour)
Method: as §1, §2, §3, §4

human insulin: differentiation factor used on human preadipocytes
expression of SEQ ID NO:104 (SEQ ID NO:104): decreased expression

CCCCCCCCCCCCCC(=O)O[C@@H]1[C@@H](C)[C@@]2(O)[C@@H](C=C(CO)C[C@]3(O)C(=O)C(C)=C[C@@H]23)[C@@H]2C(C)(C)[C@]12OC(C)=O [PMA, Phorbol myristate acetate]
expression of SEQ ID NO:94 (SEQ ID NO:94): decreased expression

C[C@H]1C[C@H]2[C@@H]3CCC4=CC(=O)C=C[C@]4(C)[C@@]3(Cl)[C@@H](O)C[C@]2(C)[C@@]1(O)C(=O)CO [beclomethasone, Beclomethasone]
expression of SEQ ID NO:96 (SEQ ID NO:96): decreased expression

C[C@H](CCC(=O)O)C[C@H](C)C[C@H](C)C(=O)/C=C(\O)[C@H](C)C[C@H](C)C/C=C/[C@@H](C)[C@@H](O)[C@@H](C)[C@@H](O)C[C@@H]1CC[C@@](C)([C@H]2CC[C@@](C)([C@@H](C)O)O2)O1 [ionomycin, Ionomycin]
expression of SEQ ID NO:94 (SEQ ID NO:94): decreased expression

6-methyl-17-hydroxyprogesterone [medroxyprogesterone]
expression of SEQ ID NO:96 (SEQ ID NO:96): decreased expression

TNF-α
expression of SEQ ID NO:102 (SEQ ID NO:102): decreased expression | expression of SEQ ID NO:101 (SEQ ID NO:101): decreased expression
